Measurements reported in publication PMC6602202, “Enteroendocrine peptides regulate feeding behavior via controlling intestinal contraction of the silkworm Bombyx mori” (PLoS ONE, 2019).

Test system: pharynx
Assay: Spontaneous contraction of the pharynx in dissected open larvae
Set-up: species or system Bombyx mori
Conditions: 10^−9–10^−5 M, 27°C, n = 5
Description: The opened head and abdominal portion of 2-day-old fifth-instar larvae (fed ad libitum and non-fed for 16 h) were washed twice with B. mori Ringer’s solution and incubated for 3 min at 27°C to stabilize the movement. After incubation, the contractile movements of the larval foregut and hindgut, particularly the spontaneous contraction of the pharynx and ileum (predominantly contracting area in hindgut) were observed and recorded using a digital microscope USB2.0 DigiScope II v2^TM (CHRONOS, Taipei, Taiwan). 100 μL of B. mori Ringer’s solution was added to the examined gut at 60 s after starting recording. Furthermore, 100 μL of B. mori Ringer’s solution (vehicle control) and 100 μL peptide-containing solution (10^−9–10^−5 M of peptides dissolved in B. mori Ringer’s solution) were exposed over gut at 120 s after a recording start. The contractile movements were analyzed using ImageJ software (https://imagej.net/Fiji) with the Optic flow plug-in (Gaussian window MSE). […] The position of the lines used for the kymograph analyses (x-y, z-w) were determined by Optic flow analyses. The waveform of the kymographs, corresponding to the visible contractions in the recorded movies, were quantified and converted to myograms. […] Invisible contractions in the recorded movie and extremely small amplitudes in the myograms were considered as no significant contractions. […]

allatotropin
relative frequency of contraction, pharynx, fed ad libitum (larvae fed ad libitum, 60–120 s vs 120–180 s): decreased relative frequency of contraction
relative frequency of contraction, pharynx, non-fed (larvae non-fed for 16 h): decreased the frequency
